Assay: in vivo
Settings: rat

COc1cc(C(=O)NS(=O)(=O)c2ccccc2C)ccc1Cc1cn(C)c2ccc(NC(=O)OC3CCCC3)cc12 [ZAFIRLUKAST]
bioavailability: 25%

CC(C)(O)c1ccccc1CC[C@@H](SCC1(CC(=O)O)CC1)c1cccc(/C=C/c2ccc3ccc(Cl)cc3n2)c1 [MONTELUKAST]
bioavailability: 63%
